Results: ChEMBL document CHEMBL2380205, “Discovery of a new class of natural product-inspired quinazolinone hybrid as potent antileishmanial agents” (J Med Chem, 2013)

Columns and labels:
[1] = Mean residence time in Sprague-Dawley rat at 10 mg/kg, iv; type: ADME, organism-based; parameters: dose 10 mg/kg, route intravenous; conditions: in vivo
[2] = Lipophilicity, log P of the compound; type: physicochemical; conditions: octanol/water
Rattus norvegicus [3] = test: Clearance in Sprague-Dawley rat at 10 mg/kg, po; type: ADME, organism-based; parameters: dose 10 mg/kg, route oral; conditions: in vivo
Albumin = Albumin (Bos taurus, UniProt P02769); test: Binding affinity to bovine serum albumin by fluorescence spectrophotometry; type: ADME; conditions: cattle, isolated protein
Sequence of Albumin (P02769 whole entry): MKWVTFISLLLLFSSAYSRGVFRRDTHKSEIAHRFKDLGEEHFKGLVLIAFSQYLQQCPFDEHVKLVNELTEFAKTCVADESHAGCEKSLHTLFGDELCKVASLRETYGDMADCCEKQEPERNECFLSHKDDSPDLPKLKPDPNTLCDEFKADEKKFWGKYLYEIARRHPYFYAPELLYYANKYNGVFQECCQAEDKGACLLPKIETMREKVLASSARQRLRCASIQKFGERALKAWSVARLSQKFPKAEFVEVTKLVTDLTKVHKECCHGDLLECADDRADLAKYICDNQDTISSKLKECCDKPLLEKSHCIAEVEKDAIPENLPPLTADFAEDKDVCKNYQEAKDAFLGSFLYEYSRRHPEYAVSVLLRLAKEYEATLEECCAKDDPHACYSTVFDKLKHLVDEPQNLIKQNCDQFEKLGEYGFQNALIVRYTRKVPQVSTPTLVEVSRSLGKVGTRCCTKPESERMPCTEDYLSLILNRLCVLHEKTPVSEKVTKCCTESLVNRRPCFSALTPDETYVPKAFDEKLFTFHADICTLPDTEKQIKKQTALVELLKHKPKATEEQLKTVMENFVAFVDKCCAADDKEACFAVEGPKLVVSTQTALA

Leishmania [4] = test: Antileishmanial activity against amastigotes of Leishmania infected in mouse J-774A.1 cells assessed as decrease in IL-10 production at IC50 after 24 hrs by ELISA relative to control; type: functional, J774.A1
[5] = AUC (0 to t) in Sprague-Dawley rat at 10 mg/kg, iv; type: ADME, organism-based; parameters: dose 10 mg/kg, route intravenous; conditions: plasma
[6] = Oral bioavailability in Sprague-Dawley rat at 10 mg/kg; type: ADME, organism-based; conditions: in vivo
[7] = Cytotoxicity against african green monkey Vero cells after 72 hrs by MTT assay; type: cell-based; conditions: chlorocebus sabaeus
[8] = Selectivity index, ratio of CC50 for mouse J774A1 cells to IC50 for amastigotes of Leishmania donovani MHOM/IN/60/Dd8 infected in mouse J-774A.1 cells; type: functional, J774.A1
Rattus norvegicus [9] = test: AUC (0 to t) in Sprague-Dawley rat at 10 mg/kg, po; type: ADME, organism-based, Plasma; parameters: dose 10 mg/kg, route oral; conditions: in vivo
Leishmania donovani [10] = test: Antileishmanial activity against promastigotes of Leishmania donovani MHOM/IN/60/Dd8 after 72 hrs by luciferase reporter gene assay; type: functional, organism-based; conditions: MHOM/IN/60/Dd8, 72 h
[11] = Elimination half life in Sprague-Dawley rat at 10 mg/kg, iv; type: ADME, organism-based; parameters: dose 10 mg/kg, route intravenous; conditions: in vivo, read-out: beta t1/2 (converted)
Leishmania [12] = test: Antileishmanial activity against amastigotes of Leishmania infected in mouse J-774A.1 cells assessed as increase in TNF-alpha production at IC50 after 24 hrs by ELISA relative to control; type: functional, J774.A1
Leishmania donovani [13] = test: Antileishmanial activity against amastigotes of Leishmania donovani MHOM/IN/60/Dd8 infected in golden hamster assessed as amastigote count at 50 mg/kg/day, ip administered for 5 days measured on day 7 of post last dose by Giemsa staining; type: functional; conditions: MHOM/IN/60/Dd8, ip, route intraperitoneal
[14] = Volume of distribution at steady state in Sprague-Dawley rat at 10 mg/kg, iv; type: ADME, organism-based; parameters: dose 10 mg/kg, route intravenous; conditions: in vivo, read-out: Vdss
Leishmania [15] = test: Antileishmanial activity against amastigotes of Leishmania infected in mouse J-774A.1 cells assessed as decrease in […] production at IC50 after 24 hrs by ELISA relative to control; type: functional, J774.A1
Leishmania [16] = test: Antileishmanial activity against amastigotes of Leishmania infected in mouse J-774A.1 cells assessed as increase in IL-12 production at IC50 after 24 hrs by ELISA relative to control; type: functional, J774.A1
[17] = Clearance in Sprague-Dawley rat at 10 mg/kg, iv; type: ADME, organism-based; parameters: dose 10 mg/kg, route intravenous; conditions: in vivo
[18] = Tmax in Sprague-Dawley rat at 10 […], iv; type: ADME, organism-based; conditions: in vivo
Leishmania donovani [19] = test: Antileishmanial activity against amastigotes of Leishmania donovani MHOM/IN/60/Dd8 infected in mouse J-774A.1 cells after 72 hrs by luciferase reporter gene assay; type: functional, organism-based; conditions: MHOM/IN/60/Dd8, J774.A1, 72 h
[20] = Cmax in Sprague-Dawley rat at 10 mg/kg, iv; type: ADME, organism-based; parameters: dose 10 mg/kg, route intravenous; conditions: in vivo
[21] = Cytotoxicity against mouse J774A1 cells after 72 hrs by MTT assay; type: cell-based, J774.A1
[22] = Mean residence time in Sprague-Dawley rat at 10 mg/kg, po; type: ADME, organism-based; parameters: dose 10 mg/kg, route oral; conditions: in vivo
Leishmania [23] = test: Antileishmanial activity against amastigotes of Leishmania infected mouse J774A1 cells assessed as induction of nitric oxide generation after 24 hrs by ELISA (reference value: 4.65 uM); type: functional, J774.A1
Leishmania donovani [24] = test: Antileishmanial activity against amastigotes of Leishmania donovani MHOM/IN/60/Dd8 infected in golden hamster assessed as amastigote count at 30 mg/kg/day, po administered for 5 days measured on day 7 of post last dose by Giemsa staining; type: functional
Leishmania donovani [25] = test: Ratio of miltefosine IC50 to compound IC50 for amastigotes of Leishmania donovani MHOM/IN/60/Dd8 infected in mouse J-774A.1 cells; type: functional, J774.A1
[26] = Elimination half life in Sprague-Dawley rat at 10 mg/kg, po; type: ADME, organism-based; parameters: dose 10 mg/kg, route oral; conditions: in vivo, read-out: beta t1/2 (converted)
Rattus norvegicus [27] = test: Mean residence time in Sprague-Dawley rat at 5 mg/kg, iv; type: ADME, organism-based; parameters: dose 5 mg/kg, route intravenous; conditions: in vivo
[28] = Tmax in Sprague-Dawley rat at 10 […], po; type: ADME, organism-based; conditions: in vivo
[29] = Tmax in Sprague-Dawley rat at 5 mg/kg, iv; type: ADME, organism-based; parameters: dose 5 mg/kg, route intravenous; conditions: in vivo
[30] = AUC (0 to t) in Sprague-Dawley rat at 5 mg/kg, iv; type: ADME, organism-based; parameters: dose 5 mg/kg, route intravenous; conditions: plasma
Rattus norvegicus [31] = test: Elimination half life in Sprague-Dawley rat at 5 mg/kg, iv; type: ADME, organism-based; parameters: dose 5 mg/kg, route intravenous; conditions: in vivo
[32] = Cmax in Sprague-Dawley rat at 5 mg/kg, iv; type: ADME, organism-based; parameters: dose 5 mg/kg, route intravenous; conditions: in vivo
Rattus norvegicus [33] = test: Clearance in Sprague-Dawley rat at 5 mg/kg, iv; type: ADME, organism-based; parameters: dose 5 mg/kg, route intravenous; conditions: in vivo
Rattus norvegicus [34] = test: Volume of distribution at steady state in Sprague-Dawley rat at 10 mg/kg, po; type: ADME, organism-based; parameters: dose 10 mg/kg, route oral; conditions: in vivo
[35] = Cmax in Sprague-Dawley rat at 10 mg/kg, po; type: ADME, organism-based; parameters: dose 10 mg/kg, route oral; conditions: in vivo
Rattus norvegicus [36] = test: Volume of distribution at steady state in Sprague-Dawley rat at 5 mg/kg, iv; type: ADME, organism-based; parameters: dose 5 mg/kg, route intravenous; conditions: in vivo

SMILES	logP [2]	CL (Rattus norvegicus [3])	KSV (Albumin)	Kq (Albumin)	fold change (FC) (Leishmania [4])	bioavailability [6]	CC50 at 72 h [7]	Ratio CC50/IC50 [8]	AUCt (Rattus norvegicus [9])	IC50 (Leishmania donovani [10])	fold change (FC) (Leishmania [12])	inhibition in vivo at 50 mg/kg/day (Leishmania donovani [13])	fold change (FC) (Leishmania [15])	fold change (FC) (Leishmania [16])	IC50 (Leishmania donovani [19])	CC50 at 72 h [21]	MRT [22]	Activity (Leishmania [23])	other results
CC1(c2ccc(Nc3nc(N4CCc5ccccc5C4)nc(N4CCc5ccccc5C4)n3)cc2)NC(=O)c2ccccc2N1 (stereo unspecified)	7.19	0.36 L/h/kg	6 ×10⁴ L/mol	6 ×10¹² L/mol/s	5	2.94%	> 400 µM	>91.11	0.716 µg·h/mL	> 40 µM	11	80.9%	>3	>8	4.39 µM	> 400 µM	8.44 h	22.58 µM	MRT [1]: 5.88 h; AUC(0-t) [5]: 24.3 µg·h/mL; half-life [11]: 12.8 h; Vd [14]: 1.95 L/kg; clearance [17]: 0.33 L/h/kg; Tmax [18]: 4.8 min; Cmax [20]: 63.3 µg/mL
CCCCCCCCCCCCCCCCOP(=O)([O-])OCC[N+](C)(C)C [MILTEFOSINE]	-0.21							1.48		1.05 µM					8.4 µM	12.4 µM			inhibition in vivo at 30 mg/kg/day (Leishmania donovani [24]): 98.1%
CN1CCN(c2ccc(-c3cc(-c4ccc(C5NC(=O)c6ccccc6N5)cc4)nc(N)n3)cc2)CC1 (stereo unspecified)							8.32 µM	15.16		1.75 µM					0.65 µM	10.2 µM			Ratio IC50 (Leishmania donovani [25]): 13
CC1(c2ccc(Nc3nc(N4CCCCC4)nc(N4CCCCC4)n3)cc2)NC(=O)c2ccccc2N1 (stereo unspecified)	6.23	1.79 L/h/kg	10 ×10⁴ L/mol	10 ×10¹² L/mol/s	>3	5.75%	> 400 µM	>101.26	0.327 µg·h/mL	7.05 µM	>9	73.2%	2.8	6	3.95 µM	> 400 µM	3.01 h	15.72 µM	half-life [26]: 1.26 h; MRT (Rattus norvegicus [27]): 3.07 h; Tmax [28]: 2 h; Tmax [29]: 4.8 min; AUC(0-t) [30]: 2.84 µg·h/mL; beta t1/2 (Rattus norvegicus [31]): 0.84 h; Cmax [32]: 1.83 µg/mL; CL (Rattus norvegicus [33]): 1.77 L/h/kg; Vdss (Rattus norvegicus [34]): 5.39 L/kg; Cmax [35]: 0.108 µg/mL; Vdss (Rattus norvegicus [36]): 5.44 L/kg
